Values belong to the compound of their own block, whether it stands above or below them.
What was measured:
[1] = Maximum concentration in brain of rats after intravenous administration; type: ADME, organism-based; set-up: route intravenous; details: rat
[2] = Maximum concentration in heart of rats after intravenous administration; type: ADME, organism-based; set-up: route intravenous; details: rat
[3] = Maximum concentration in plasma of rats after intravenous administration; type: ADME, organism-based; set-up: route intravenous; details: rat
Rattus norvegicus [4] = assay: Cerebral Ischemic stroke was expressed to determine the reduction in infarct volume at a dose of 20 mg/kg administered intravenously i in rats; type: functional; details: route intravenous
Rattus norvegicus [5] = assay: Cerebral Ischemic stroke was expressed to determine the reduction in infarct volume at a dose of 40 mg/kg administered intravenously i in rats; type: functional; details: route intravenous
Rattus norvegicus [6] = assay: Cerebral Ischemic stroke was expressed to determine the reduction in infarct volume at a dose of 40 mg/kg administered intravenously in rats; type: functional; details: route intravenous
Rattus norvegicus [7] = assay: Cerebral Ischemic stroke was expressed to determine the reduction in infarct volume at a dose of 80 mg/kg administered intravenously i in rats; type: functional; details: route intravenous
Rattus norvegicus [8] = assay: Myocardial Ischemic stroke was expressed to determine the reduction in infarct volume at a dose of 40 mg/kg administered intravenously in rats; type: functional, Myocardium; details: route intravenous
Rattus norvegicus [9] = assay: Myocardial Ischemic stroke was expressed to determine the reduction in infarct volume at a dose of 80 mg/kg administered intravenously in rats; type: functional, Myocardium; details: route intravenous
P388 = assay: Effective concentration required to inhibit P388D1 cell death by 50%; type: functional, cell-based; details: Mus musculus
Rattus norvegicus [10] = assay: Cerebral Ischemic stroke was expressed to determine the reduction in infarct volume at a dose of 40 mg/kg administered intraperitoneally in rats; type: functional; details: route intraperitoneal
[11] = biological target: Poly [ADP-ribose] polymerase 1 (Homo sapiens, UniProt P09874); assay: Inhibitory activity against Poly (ADP-ribose) polymerase 1
Rattus norvegicus [12] = assay: Cerebral Ischemic stroke was expressed to determine the reduction in infarct volume at a dose of 80 mg/kg administered intravenously in rats; type: functional; details: route intravenous
Rattus norvegicus [13] = assay: Myocardial Ischemic stroke was expressed to determine the reduction in infarct volume at a dose of 20 mg/kg administered intravenously in rats; type: functional, Myocardium; details: route intravenous
Rattus norvegicus [14] = assay: Cerebral Ischemic stroke was expressed to determine the reduction in infarct volume at a dose of 80 mg/kg administered intraperitoneally in rats; type: functional; details: route intraperitoneal

Chain of Poly [ADP-ribose] polymerase 1 (P09874 whole entry): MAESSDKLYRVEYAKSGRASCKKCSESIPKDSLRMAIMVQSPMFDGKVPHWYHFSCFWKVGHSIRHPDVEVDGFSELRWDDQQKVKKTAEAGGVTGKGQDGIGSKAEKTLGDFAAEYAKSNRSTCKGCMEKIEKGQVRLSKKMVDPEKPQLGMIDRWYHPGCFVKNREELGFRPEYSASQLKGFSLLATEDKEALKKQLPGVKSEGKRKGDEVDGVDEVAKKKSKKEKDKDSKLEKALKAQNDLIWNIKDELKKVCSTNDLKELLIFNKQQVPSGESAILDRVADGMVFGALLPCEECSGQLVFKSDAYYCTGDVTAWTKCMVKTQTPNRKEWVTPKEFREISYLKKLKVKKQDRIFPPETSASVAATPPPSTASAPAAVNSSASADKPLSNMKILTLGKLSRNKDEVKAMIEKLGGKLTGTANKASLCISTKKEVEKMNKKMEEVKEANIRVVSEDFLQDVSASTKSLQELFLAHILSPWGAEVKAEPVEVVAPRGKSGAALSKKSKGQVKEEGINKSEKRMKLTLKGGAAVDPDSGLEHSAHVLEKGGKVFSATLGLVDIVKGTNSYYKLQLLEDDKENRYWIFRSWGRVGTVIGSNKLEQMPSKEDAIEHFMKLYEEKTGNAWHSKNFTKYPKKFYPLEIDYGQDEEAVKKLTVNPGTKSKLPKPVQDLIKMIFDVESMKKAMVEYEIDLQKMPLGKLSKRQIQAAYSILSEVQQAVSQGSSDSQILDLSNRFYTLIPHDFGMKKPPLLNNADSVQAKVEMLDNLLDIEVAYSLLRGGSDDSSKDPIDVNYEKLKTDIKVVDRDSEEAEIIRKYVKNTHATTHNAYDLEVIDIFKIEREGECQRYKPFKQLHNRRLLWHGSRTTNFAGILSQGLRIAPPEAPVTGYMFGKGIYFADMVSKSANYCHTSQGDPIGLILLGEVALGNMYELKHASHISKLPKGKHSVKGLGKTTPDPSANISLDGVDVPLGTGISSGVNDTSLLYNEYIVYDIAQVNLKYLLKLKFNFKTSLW

Compound: CN1CCN(c2ccc3nc(O)c4ccccc4c3n2)CC1.CS(=O)(=O)O
- Cmax [1]: 13700 ng/g
- Cmax [2]: 2980 ng/g
- Cmax [3]: 456 ng/mL
- Reduction (Rattus norvegicus [4]): 33%
- Reduction (Rattus norvegicus [5]): 18%
- Reduction (Rattus norvegicus [6]): 44%
- Reduction (Rattus norvegicus [7]): 35%
- Reduction (Rattus norvegicus [8]): 18.8%
- Reduction (Rattus norvegicus [9]): 25.5%

Compound: CN(C)CC(=O)Nc1ccc2nc(O)c3ccccc3c2n1
- EC50 (P388): 2080 nM

Compound: CN1CCN(c2ccc3nc(O)c4ccccc4c3n2)CC1
- EC50 (P388): 125 nM

Compound: CN1C[C@H]2C[C@@H]1CN2c1ccc2nc(O)c3ccccc3c2n1
- EC50 (P388): 240 nM

Compound: Oc1nc2ccncc2c2ccccc12
- Reduction (Rattus norvegicus [10]): 47%

Compound: Oc1nc2ccc(N3C[C@H]4C[C@@H]3CN4)nc2c2ccccc12
- IC50 [11]: 42 nM

Compound: CS(=O)(=O)O.Oc1nc2ccc(N3CCNCC3)nc2c2ccccc12
- Cmax [1]: 2180 ng/g
- Cmax [2]: 20300 ng/g
- Cmax [3]: 3790 ng/mL
- EC50 (P388): 150 nM
- IC50 [11]: 58 nM

- Cmax [1]: 1440 ng/g
- Cmax [2]: 38400 ng/g
- Cmax [3]: 4790 ng/mL
Compound: Cl.O=C(CN1CCC(N2CCCC2)CC1)Nc1ccc2nc(O)c3ccccc3c2n1
- EC50 (P388): 1270 nM
- Reduction (Rattus norvegicus [12]): -1%
- Reduction (Rattus norvegicus [13]): 13%
- Reduction (Rattus norvegicus [8]): 39%
- Reduction (Rattus norvegicus [9]): 44%

- IC50 [11]: 209 nM
Compound: Nc1ccc2[nH]c(=O)c3ccccc3c2n1

Compound: CC(C)N1CCN(CC(=O)Nc2ccc3nc(O)c4ccccc4c3n2)CC1
- IC50 [11]: 277 nM

Compound: CS(=O)(=O)O.Oc1nc2ccc(N3CCN(CC4CC4)CC3)nc2c2ccccc12
- Cmax [1]: 8850 ng/g
- Cmax [2]: 7480 ng/g
- Cmax [3]: 1950 ng/mL
- EC50 (P388): 145 nM
- IC50 [11]: 71 nM
- Reduction (Rattus norvegicus [8]): 36%

- IC50 [11]: 20000 nM
Compound: NC(=O)c1ccccc1 [BENZAMIDE]

- IC50 [11]: 774 nM
Compound: CC(C)(C)OC(=O)N1C[C@H]2C[C@@H]1CN2c1ccc2[nH]c(=O)c3ccccc3c2n1

Compound: O=C(CN1CCC(N2CCCC2)CC1)Nc1cnc2c(c1)nc(O)c1ccccc12
- EC50 (P388): 1140 nM

- Cmax [3]: 10 ng/mL
Compound: C[N+]1([O-])CCN(c2ccc3nc(O)c4ccccc4c3n2)CC1
- EC50 (P388): 5800 nM

Compound: O=c1[nH]c2cccnc2c2ccccc12
- Reduction (Rattus norvegicus [14]): 55%

Compound: O=C(CN1CCCCC1)Nc1ccc2nc(O)c3ccccc3c2n1
- EC50 (P388): 1110 nM

- IC50 [11]: 350 nM
Compound: O=c1[nH]c2ccccc2c2ccccc12
- Reduction (Rattus norvegicus [10]): -7%

Compound: CN(C)C1CCN(c2ccc3nc(O)c4ccccc4c3n2)CC1
- EC50 (P388): 135 nM
- IC50 [11]: 112 nM

Compound: CN(C)CC(=O)Nc1cnc2c(c1)nc(O)c1ccccc12
- EC50 (P388): 2630 nM

Compound: Oc1nc2ccc(N3CCC(N4CCCC4)CC3)nc2c2ccccc12
- EC50 (P388): 177 nM

- IC50 [11]: 169 nM
Compound: O=c1[nH]c2cnccc2c2ccccc12

- IC50 [11]: 173 nM
Compound: CCN(CC)CCNc1ccc2[nH]c(=O)c3ccccc3c2n1
